The format of data set [1] is physicochemical. Particulars: for p-chloroaniline (ppm, HPLC method 1): methanol:acetic acid 8:1 (v/v), 40° C.; for p-chloroaniline (ppm, HPLC method 1), Average: methanol:acetic acid 8:1, 40° C. On the procedure: HPLCs were acquired on a Waters Alliance 2695 LC system. Column: Kromasil C18, 5 μm, 4.6×250 mm. Flow rate: 1 mL/min. Detector: UV, 254 nm. Mobile phase A: (33:9.5:57.5; v/v/v) 1-octanesulfonic acid sodium salt solution/glacial acetic acid/methanol. The 1-octanesulfonic acid sodium salt solution was prepared dissolving 1.6 g of 1-octanesulfonic acid sodium salt in 330 ml of water and adding 95 ml of glacial acetic acid and 575 ml of methanol. Mobile phase B: methanol. Gradient: 100% A (0-20 min)-85% A (40-65 min)-100% A (70-80 min). Temperature: 30° C. Sample: 10 mg/mL in mobile phase A. Injection volume: 10 μL.
Limit of detection (LOD): 3 ppm of p-chloroaniline.
Two 100 mg aliquots of a sample of chlorhexidine free of potential genotoxicity (Replicates A and B), having a content of p-chloroaniline below 40-50 ppm, a content of each of compounds of Markush formula (IV) (i.e. impurities B-G) below 0.15%, and a total impurities content below 1.5%, as measured by HPLC method 1, were dissolved in 1 mL of a mixture of methanol and acetic acid 8:1 (v/v), and each solution was stored in 5 different closed glass vials at 40° C. These vials were opened after 1, 2, 4, 14, and 25 days of storage, respectively, and the content of p-chloroaniline was measured (HPLC method 1). A linear regression line was calculated from the data obtained in Table 1 (y=2170x-356, R^2=0.991, where “y” represents the measured content of p-chloro aniline in ppm units and “x” represents the degradation time in day units; See FIG. 1).
Three 100 mg aliquots of a sample of chlorhexidine (Replicates C, D and E), having a content of p-chloroaniline of less than 40-50 ppm, a content of each of compounds of Markush formula (IV) (i.e. impurities B-G) higher than 0.15%, and a total impurities content below 2.5-3.0%, as measured by HPLC method 1, were dissolved in 1 mL of a mixture of methanol and acetic acid 8:1 (v/v), and each solution was stored in 2 different closed glass vials at 40° C. These vials were opened after 12 and 19 days of storage, respectively, and the content of p-chloroaniline was measured (HPLC method 1).

Data set [2] in a line: Stability study of aqueous solutions of chlorhexidine digluconate (p-chloroaniline by colorimetric method, European Pharmacopoeia 6.0). Particulars: 20% aqueous solution; for p-chloroaniline (ppm, Colorimetry), 3 months: closed vial, protected from light. The format is physicochemical. On the procedure: In the U.S. Pharmacopoeia (First Supplement to the USP 33-NF 28 Reissue, USP Monographs: Chlorhexidine Gluconate Solution) it is described that the digluconate salt of chlorhexidine in aqueous solution should be preserved in tight containers, protected from light, and at controlled room temperature (i.e. about 25° C.). In this regard, the present inventors have observed that a 20% (w/v) aqueous solution of the chlorhexidine digluconate of the invention which is free of potential genotoxicity (i.e. having a content of p-chloroaniline lower than 40-50 ppm, with respect to the chlorhexidine base) can become moderately potentially genotoxic (i.e. showing a content of p-chloroaniline dramatically close to higher than 40-50 ppm) after 3 months of storage at 25° C., and highly potentially genotoxic (i.e. showing a content of p-chloroaniline much higher than 40-50 ppm) after 3 months of storage at 40° C. […] Conversely, when storing the aqueous solution of chlorhexidine digluconate of the invention at 15° C., the free-genotoxic stability (i.e. a content of p-chloroaniline lower than 40-50 ppm) is kept at low values for at least 3 months (See Example 12).
Two samples corresponding to a 20% (v/w) aqueous solution of chlorhexidine digluconate which was prepared from the chlorhexidine of Example 10, were stored in a closed vial, under different temperature conditions (i.e. 15° C., 25° C., and 40° C.) for 3 months in a closed chamber protected from light. The potentially free genotoxicity stability of the samples (i.e. the presence of p-chloroaniline) was measured by the colorimetric method described for measuring p-chloroaniline in chlorhexidine digluconate solution in European Pharmacopoeia 6.0 (page 1501).

Where [3] appears, read: 1 day of storage, sample with impurities B-G below 0.15%, 0.54% total impurities.
Setting [4] is: 2 days of storage, sample with impurities B-G below 0.15%, 0.54% total impurities.
[5] abbreviates: 4 days of storage, sample with impurities B-G below 0.15%, 0.54% total impurities.
The mark [6] stands for this setting: 14 days of storage, sample with impurities B-G below 0.15%, 0.54% total impurities.
The mark [7] stands for this setting: 25 days of storage, sample with impurities B-G below 0.15%, 0.54% total impurities.
Where [8] appears, read: 12 days of storage, sample with impurities B-G higher than 0.15%, 2.64% total impurities.
The mark [9] stands for this setting: 19 days of storage, sample with impurities B-G higher than 0.15%, 2.64% total impurities.

Where two headings read alike, the source gives them in different places.

Take `N=C(NCCCCCCNC(=N)NC(=N)Nc1ccc(Cl)cc1)NC(=N)Nc1ccc(Cl)cc1` [Replicate A]: the “p-chloroaniline (ppm, HPLC method 1)” value in data set [1] (setting [3]) was 1,556 ppm; in data set [1] (setting [4]), 3,357 ppm; in data set [1] (setting [5]), 6,284 ppm; in data set [1] (setting [6]), 33,753 ppm; in data set [1] (setting [7]) it was 52,561 ppm.

In the case of `[H]/N=C(\N/C(=N/[H])NCCCCCCNC(=N)NC(=N)Nc1ccc(Cl)cc1)Nc1ccc(Cl)cc1` [chlorhexidine, 1-[amino-[6-[amino-[amino-(4-chlorophenyl)aminomethylidene]aminomethylidene]amino-hexylimino]methyl]imino-N-(4-chlorophenyl)-methanediamine], in data set [1], the “linear regression line, degradation rate towards p-chloroaniline” value was determined as 2170x-356. Further, the “p-chloroaniline (ppm, HPLC method 1), Average” value is recorded as 1,741 ppm in data set [1] (average of Replicates A and B, 1 day, 0.54% total impurities sample); 3,483 ppm in data set [1] (average of Replicates A and B, 2 days, 0.54% total impurities sample); 7,052 ppm in data set [1] (average of Replicates A and B, 4 days, 0.54% total impurities sample); 33,664 ppm in data set [1] (average of Replicates A and B, 14 days, 0.54% total impurities sample); 52,109 ppm in data set [1] (average of Replicates A and B, 25 days, 0.54% total impurities sample); 33459 ppm in data set [1] (average of Replicates C, D and E, 12 days, 2.64% total impurities sample). Also, in data set [1] (average of Replicates C, D and E, 19 days, 2.64% total impurities sample), the “p-chloroaniline (ppm, HPLC method 1), Average” value came out at 46524 ppm.

For the compound `N=C(NCCCCCCNC(=N)NC(=N)Nc1ccc(Cl)cc1)NC(=N)Nc1ccc(Cl)cc1.O=C(O)[C@H](O)[C@@H](O)[C@H](O)[C@H](O)CO.O=C(O)[C@H](O)[C@@H](O)[C@H](O)[C@H](O)CO` [chlorhexidine digluconate], the “p-chloroaniline, Increasing (%)” value in data set [2] (3 months at 15° C.) is 433%; in data set [2] (3 months at 25° C.) it was 1533%; in data set [2] (3 months at 40° C.), 4233%. Also, the “p-chloroaniline (ppm, Colorimetry), Initial” value in data set [2] (sample to be stored at 15° C.), in data set [2] (sample to be stored at 25° C.) and in data set [2] (sample to be stored at 40° C.) was 3 ppm throughout. Also, the “p-chloroaniline (ppm, Colorimetry), 3 months” value in data set [2] (storage at 15° C.) was 16 ppm; in data set [2] (storage at 25° C.) it was 49 ppm; in data set [2] (storage at 40° C.), 130 ppm.

As to `N=C(NCCCCCCNC(=N)NC(=N)Nc1ccc(Cl)cc1)NC(=N)Nc1ccc(Cl)cc1` [Replicate B], the “p-chloroaniline (ppm, HPLC method 1)” value in data set [1] (setting [3]) is on record as 1,925 ppm; in data set [1] (setting [4]), 3,609 ppm; in data set [1] (setting [5]), 7,819 ppm; in data set [1] (setting [6]) it was 33,575 ppm; in data set [1] (setting [7]), 51,656 ppm.

For the compound `N=C(NCCCCCCNC(=N)NC(=N)Nc1ccc(Cl)cc1)NC(=N)Nc1ccc(Cl)cc1` [Replicate D], the “p-chloroaniline (ppm, HPLC method 1)” value was 33153 ppm in data set [1] (setting [8]) and 46753 ppm in data set [1] (setting [9]).

`N=C(NCCCCCCNC(=N)NC(=N)Nc1ccc(Cl)cc1)NC(=N)Nc1ccc(Cl)cc1` [Replicate C]: the “p-chloroaniline (ppm, HPLC method 1)” value is given as 33657 ppm in data set [1] (setting [8]) and 45243 ppm in data set [1] (setting [9]).

Turning to `N=C(NCCCCCCNC(=N)NC(=N)Nc1ccc(Cl)cc1)NC(=N)Nc1ccc(Cl)cc1` [Replicate E], the “p-chloroaniline (ppm, HPLC method 1)” value is 33568 ppm in data set [1] (setting [8]) and 47577 ppm in data set [1] (setting [9]).

The record behind these values is patent publication US20130065965A1, “DI(4-CHLORO-PHENYLDIGUANIDO) DERIVATIVE WHICH IS FREE OF POTENTIAL GENOTOXICITY AND A PROCESS FOR REDUCING THE RESIDUAL AMOUNT OF P-CHLOROANILINE IN SAID DI(4-CHLORO-PHENYLDIGUANIDO) DERIVATIVE” (MEDICHEM S.A., priority 2009, published 2013).
